Columns and labels:
COX-2 mRNA = COX-2 mRNA in muscularis after IM (real time RT-PCR); assay type: in vivo, mouse
Protocol: Pro- and anti-inflammatory gene expression was determined by real time RT-PCR. The small intestinal muscularis externa was collected at 4 time points (3, 6, 12, and 24 hr) postoperatively and snap frozen in liquid nitrogen. Total RNA extraction was performed using the guanidium-thiocyanate phenol-chloroform extraction method as described in Eskandari et al. (Id.) RNA pellets were resuspended in RNA-secure resuspension solution (Ambion Inc., Austin, Tex.), followed by removal of potential contaminating DNA by treatment with DNase I (DNA-Free Kit, Ambion Inc., Austin, Tex.). Equal aliquots (5 μg) of total RNA from each sample were quantified by spectrophotometry (wavelength […]). Peak mRNA expression was quantified in duplicate by SYBR Green two-step, real-time RT-PCR. β-actin was used as the endogenous reference. Aliquoted RNA (40 ng) was subjected to first-strand complementary DNA (cDNA) synthesis using random hexamers (PE applied Biosystems, Foster City, Calif.) and Super Script II (Life Technologies, Rockville, Md.). Primers were taken from the literature or designed according to published sequences (Table 3). PCR reaction mixture was prepared using SYBR Green PCR Core Reagents (PE Applied Biosystems). Each sample was estimated in duplicate using the conditions recommended by the manufacturer. Real-time PCR data were plotted as the ΔRn fluorescence signal versus the cycle number. An arbitrary threshold was set to the midlinear portion of the log ΔRn cycle plot. The threshold cycle (CT) is defined as the cycle number at which the ΔRn, crosses this threshold. Quantification of mRNA expression was normalized to β-actin and calculated relative to control using the comparative CT method.
To exclude PCR amplification of contaminating genomic DNA, RT-negative controls (samples containing RNA which was not reverse transcribed) were included in each PCR reaction. Melting curve analyses were performed for each reaction to ensure amplification of specific product. […] PCR amplification efficiency of each target cDNA was measured by determining the colinearity of serial dilutions. […]

[1] = system: rats that underwent small bowel transplantation; experiment: intestinal transit of orally fed fluorescein-labeled dextran after SITx; assay type: in vivo, rat; details: for distribution of fluorescent label along the gastrointestinal tract: 2 hours after oral feeding
Protocol: To determine whether CO is protective against ileus associated with small bowel transplantation, orthotopic SITx was performed in syngenic Lewis rats. SITx with caval drainage was performed using a previously described procedure. […] The graft was perfused via the aortic segment with 5 ml chilled Ringer's lactate solution, and the intestinal lumen was irrigated with 20 ml of cold saline solution containing 0.5% neomycin-sulfate (Sigma, St. Louis, Mo.). End-to-side anastomoses between the graft aorta and the recipient infrarenal aorta, and between the graft portal vein and recipient vena cava, were performed with 10-0 Novafil™ suture. The cold ischemic time was 1 hour. The entire recipient intestine was removed and the enteric continuity was restored by proximal and distal end-to-end intestinal anastomoses. Recipient animals were given 20 mg/day prophylactic cefamandole nafate for 3 postoperative days. Transplanted recipients were given water 3 hours after surgery, and were fed 24 hours after surgery.
Four groups of animals were examined in this study, two of which received a SITx. Group 1 consisted of unoperated normal rats. Group 2 animals were exposed to CO with no surgery. In Group 3, syngeneic SITx were performed and the recipients kept in room air. Group 4 consisted of SITx recipients that were placed in the CO chamber for 1 hour before surgery and then re-exposed to CO immediately following surgery until sacrificed. In both Groups 3 and 4, normal LEW rats served as donors.
The animals were exposed to CO at a concentration of 250 ppm. Briefly, 1% CO in air was mixed with air (21% oxygen) in a stainless steel mixing cylinder and then directed into a 3.70 ft^3 glass exposure chamber at a flow rate of 12 L/min. A CO analyzer (Interscan, Chatsworth, Calif.) was used to measure CO levels continuously in the chamber. CO concentrations were maintained at 250 ppm at all times. The animals were supplied food and water during the exposures.
Intestinal transit was measured in controls and manipulated animals 48 hours postoperatively by evaluating the intestinal distribution of fluorescein-labeled dextran (Molecular Probes). Animals were lightly sedated with inhaled isofluran and fed orally with labeled dextran (200 μl of 6 mg/ml in saline). Two hours after administration, the animal was sacrificed and the entire bowel from stomach to distal colon was collected. […] After pelleting the intestinal tissue and chyme, aliquots of the supernatant were read in duplicate on a plate reader (CytoFluor II; excitation wavelength 530 nm and emission 590 nm) for quantification of the fluorescent signal in each bowel segment. […] Intestinal transit was determined for statistical analysis by calculating the geometric center (GC).

circular muscle strip = experiment: Example 3 circular muscle strip contractions in response to bethanechol after IM; assay type: in vivo, mouse; details: IM+CO mice (250 and 500 ppm), bethanechol 100 μM, 24 hours
Protocol: Ileus was induced in mice by gentle manipulation of the small intestine. An incision was made to expose the abdominal cavity of the mouse, and bowel manipulation was performed by gentle poking and prodding of the small intestine (see, e.g., Schwarz et al., Gastroenterology 121(6):1354-1357 (2001)). The incision was subsequently closed, and analyses were performed 24 hours later. Mice were exposed to CO by inhalation (250 and 500 ppm) for 1 hour immediately prior to intestinal manipulation and during the entire 24-hour recovery period. Intestinal contractility was assessed in vitro by measuring circular muscle strip contractions in response to bethanechol (0.3-300 μM) and in vivo by determining intestinal transit from the distribution of orally-fed, fluorescein-labeled dextran and calculating geometric center as described in Example 1 above. HO-1 and IL-10 mRNA expression were determined by SYBR green real time RT-PCR from extracts of muscularis extemae, as described in Example 1 above. Release of nitric oxide (NO), a potent inhibitor of smooth muscle contractility, was estimated by measuring serum total nitrite, also described in Example 1 above.

**Q.** Which results are given for `[C-]#[O+]` [CO, carbon monoxide]?
**A.** IM-induced COX-2 gene expression (COX-2 mRNA; IM + CO, 3 or 6 hr time points): no effect; COX-2 mRNA expression (COX-2 mRNA; control animals, CO inhalation, 3 hr post-treatment): significantly increased; induction of COX-2 message (COX-2 mRNA; unoperated control mice, CO inhalation alone, 3 hr): 2.5 fold; intestinal transit ([1]; SITx + CO, Table 2): normal; intestinal transit (Geometric Center) ([1]; SITx rats, inhaled CO 250 ppm, 48 hours postoperatively): significantly improved; distribution of fluorescent label along the gastrointestinal tract ([1]; transplanted animals treated with CO): small bowel segments 6, 7 and 8; distribution of fluorescent label along the gastrointestinal tract ([1]; unoperated control rats treated with CO): small bowel segments 9 and 10, and in the cecum; peak contractile force (circular muscle strip): 1.9±0.5 g/s/mm^2

— patent US7687079B2, “Methods of treating ileus” (priority 2002, dated 2010)
